Columns and labels:
[1] = tested on: A2780R, PA-1, SKOV3, OV4, and OVCAR3 human ovarian cancer cell lines; experiment: Cell viability by MTT assay, other ovarian cancer cell lines; type: cell-based; settings: 10 μmol/L; 24 h
Experimental: Cell viability was determined by a colorimetric assay using MTT. In the mitochondria of living cells, yellow MTT undergoes a reductive conversion to formazan, producing a purple color. Cells, grown to […] confluence in 75-mm flasks, were trypsinized, counted, seeded in 96-well plates with an average population of 7,000 cells per well, incubated overnight, and then treated with curcumin, H-4073, or HO-3867 for 24 hours. All experiments were done using eight replicates and, repeated at least thrice.

[2] = tested on: FAS and FAK in A2780 and SKOV3 cells; experiment: FAS and FAK protein and mRNA expression in ovarian cancer cells; type: cell-based, human; settings: 10 μM
Experimental: Cells in RPMI 1640 medium were treated with DMSO (control) or HO-3867 (10 μM) for 24 h. Equal volumes of DMSO (0.1% v/v) were present in each treatment. Following treatment, the cell lysates were prepared in nondenaturing lysis buffer containing 10-mM Tris-HCl (pH 7.4), 150-mM NaCl, 1% Triton X-100, 1-mM EDTA, 1-mM EGTA, 0.3-mM phenylmethylsulfonyl fluoride, 0.2-mM sodium orthovanadate, 0.5% NP40, 1-μg/ml aprotinin, and 1-μg/ml leupetin. The lysates were centrifuged at 10,000×g for 20 min at 4° C., and the supernatant was separated. The protein concentration in the lysates was determined using a Pierce detergent-compatible protein assay kit. For Western blotting, 25 to 50 μg of protein lysate per sample was denatured in 2×SDS-PAGE sample buffer and subjected to SDS-PAGE on a 10% tris-glycine gel. […] The bound antibodies were detected with horseradish peroxidase (HRP)-labeled sheep anti-mouse IgG or HRP-labeled donkey anti-rabbit IgG using an enhanced chemiluminescence detection system (ECL Advanced kit). Protein expressions were determined using Image Gauge version 3.45.
Total RNA isolated from ovarian tumor tissue was prepared with TRIzol (Life Technologies, Grand Island, N.Y.) according to the manufacturer's instructions. RNA quantification was done using spectrophotometry. […]

[3] = Superoxide radical-scavenging by EPR (xanthine/xanthine oxidase, DEPMPO competition); settings: 100 μM compound versus 1 mM DEPMPO
Experimental: Electron paramagnetic resonance (EPR) spectroscopy was used to quantitatively determine the relative superoxide-scavenging ability of the DAPs in comparison with DEPMPO, a known superoxide scavenger. Superoxide radicals were generated using an aerated solution of PBS (pH 7.4) containing xanthine (0.2 mM), xanthine oxidase (0.02 U/ml), and diethylenetriamine pentaacetic acid (0.1 mM). The superoxide radicals (O2^−) generated by the xanhine-xanthine oxidase reaction were reacted with DEPMPO (1 mM) to form a paramagnetic adduct (DEPMPO-OOH), which was detected using X-band (9.8 GHz) EPR spectroscopy. In separate experimental groups, […], or SOD (500 U/ml) was added to the reaction mixture. […] The generation of the DEPMPO-OOH adduct was measured at 10 min after initiation of the reaction.
Both N-hydroxypyrroline and nitroxide have antioxidant properties including SOD- and catalase-mimetic activity. Therefore, we determined the superoxide radical-scavenging ability of DAPs using a competitive reaction in the presence of DEPMPO. Superoxide radicals were generated using an aerobic solution of xanthine and xanthine oxidase and detected as DEPMPO-OOH adduct by EPR spectroscopy. The DAP compounds (100 μM) were used to compete with 1 mM DEPMPO for the superoxide ions. SOD (4.2 μM) was used as a positive control.

[4] = tested on: pSTAT3 (Tyr705 and Ser727) and phospho-JAK1 (Tyr1022/1023) in A2780 cells; experiment: Immunoblot and immunoprecipitation of JAK/STAT3 signaling; type: cell-based, human; settings: 10 or 20 μmol/L, 24 hours
Experimental: Equal volumes of DMSO (0.1% v/v) were present in each treatment. Following treatment, the cell lysates were prepared in non-denaturing lysis buffer containing 10 mmol/L Tris-HCl (pH 7.4), 150 mmol/L NaCl, 1% Triton X-100, 1 mmol/L EDTA, 1 mmol/L EGTA, 0.3 mmol/L phenylmethyl-sulfonyl fluoride, 0.2 mmol/L sodium orthovanadate, 0.5% NP40, 1 μg/mL aprotinin, and 1 μg/mL leupetin. The lysates were centrifuged at 10,000×g for 20 minutes at 4° C. and the supernatant was separated. The protein concentration in the lysates was determined using a Pierce detergent-compatible protein assay kit. For Western blotting, 25 to 50 μg of protein lysate per sample were denatured in 2×SDS-PAGE sample buffer and subjected to SDS-PAGE on a 10% tris-glycine gel. The separated proteins were transferred to a polyvinylidene fluoride membrane and were blocked with 5% nonfat milk powder (w/v) in TBST (10 mmol/L Tris, 10 mmol/L NaCl, 0.1% Tween 20) for 1 hour at room temperature or overnight at 4° C. The membranes were then incubated with the primary antibodies. The bound antibodies were detected with horseradish peroxidase-labeled sheep anti-mouse IgG or horseradish peroxidase-labeled donkey anti-rabbit IgG using an enhanced chemiluminescence detection system (ECL Advanced kit). Protein expressions were determined using the Image Gauge v. 3.45 software.

[5] = tested on: HER1, SREBP1, ERK1/2, MMP-2 and VEGF in A2780 and SKOV3 cells; experiment: Blotting of FAS/FAK-regulating proteins; type: cell-based, human; settings: 10 μM, 24 h
Experimental: Cells in RPMI 1640 medium were treated with DMSO (control) or HO-3867 (10 μM) for 24 h. Equal volumes of DMSO (0.1% v/v) were present in each treatment. Following treatment, the cell lysates were prepared in nondenaturing lysis buffer containing 10-mM Tris-HCl (pH 7.4), 150-mM NaCl, 1% Triton X-100, 1-mM EDTA, 1-mM EGTA, 0.3-mM phenylmethylsulfonyl fluoride, 0.2-mM sodium orthovanadate, 0.5% NP40, 1-μg/ml aprotinin, and 1-μg/ml leupetin. The lysates were centrifuged at 10,000×g for 20 min at 4° C., and the supernatant was separated. The protein concentration in the lysates was determined using a Pierce detergent-compatible protein assay kit. For Western blotting, 25 to 50 μg of protein lysate per sample was denatured in 2×SDS-PAGE sample buffer and subjected to SDS-PAGE on a 10% tris-glycine gel. The separated proteins were transferred to a PVDF membrane and blocked with 5% nonfat milk powder (w/v) in TBST (10-mM Tris, 10-mM NaCl, 0.1% Tween 20) for 1 h at room temperature or overnight at 4° C. The membranes were then incubated with the primary antibodies. The bound antibodies were detected with horseradish peroxidase (HRP)-labeled sheep anti-mouse IgG or HRP-labeled donkey anti-rabbit IgG using an enhanced chemiluminescence detection system (ECL Advanced kit). Protein expressions were determined using Image Gauge version 3.45.

Compound: CC1(C)C=C(CN2C/C(=C\c3ccc(F)cc3)C(=O)/C(=C/c3ccc(F)cc3)C2)C(C)(C)N1O [HO-3867, 1-[(1-oxyl-2,2,5,5-tetramethyl-2,5-dihydro-1H-pyrrol-3-yl)methyl]-(3E,5E)-3,5-bis(4-fluorobenzylidene)piperidin-4-one]
- cytotoxicity in other human ovarian cancer cell lines [1]: equally and significantly toxic
- FAS and FAK, protein and expression levels [2]: incubation-time-dependent inhibition
- diminution of the DEPMPO-OOH concentration [3]: −50%
- pSTAT3 (Tyr705 and Ser727) levels [4]: significantly decreased
- phosphor-JAK1 (Tyr1022/1023) ([4]; versus unexposed controls): substantial decrease
- pHER2, pERK1/2, SREBP1, MMP-2, and VEGF [5]: inhibited
